Data taken from publication PMC4515243, “Phase 1 pharmacokinetic study of the oral pan-AKT inhibitor MK-2206 in Japanese patients with advanced solid tumors” (Cancer Chemotherapy and Pharmacology, 2015).
Where two headings read alike, the source gives them in different places.

Key:
[1] = plasma pharmacokinetics in Japanese patients (HPLC-MS/MS); format: in vivo, human; settings: for AUC(0-t) / concentration at 48 h / Cmax / Tmax / half-life: human, plasma, oral; for half-life: read-out: Apparent terminal t½ (converted)
Protocol: Blood samples for the QOD dosing schedule were collected for PK analyses just before and 2, 4, 6, 10, 24, and 48 h after MK-2206 dosing on days 1 and 27 of Cycle 1. After the final dose of MK-2206 during Cycle 1, blood samples were drawn 96, 144, and 192 h postdose during the 1-week rest period. Samples were also drawn directly before MK-2206 treatment on days 7, 15, and 21. Blood samples for the QW dosing schedule were collected for PK analyses just before and 2, 4, 6, 10, 24, 48, and 96 h after MK-2206 dosing on days 1 and 22 of Cycle 1. After the final dose of MK-2206 in Cycle 1, blood samples were drawn 168 and 240 h postdose during the 1-week rest period. Samples were also drawn directly before MK-2206 treatment on days 8 and 15. The blood samples were centrifuged, and the plasma was separated and stored at −20 °C. The plasma concentrations were analyzed using high-performance liquid chromatography with tandem mass spectroscopy (HPLC–MS/MS) at Merck Research Labs, West Point, PA.
PK differences were observed after exposure to MK-2206 in Japanese patients, compared with non-Japanese patients. Consequently, the PK data were analyzed using t tests and nonparametric Wilcoxon–Mann–Whitney tests because of potential differences in variance. […] No differences in Tmax were observed.

AKT2 [2] = system: AKT2; parameters: method as in ref 3 = [3]; 3. Yan L (2009) MK-2206: a potent oral allosteric AKT inhibitor [abstract #DDT01-1]. In: Proceedings of the 100th annual meeting of the American association for cancer research, Denver, CO, 18–22 Apr; settings: purified recombinant AKT2, in vitro; cited from earlier work
[3] = non-Japanese patients; cited from earlier work
AKT2 [4] = system: AKT2; parameters: method as in ref 4 = [4]; 4. Lu W, Defeo-Jones D, Davis L et al (2009) In vitro and in vivo antitumor activities of MK-2206, a new allosteric Akt inhibitor [abstract #3714]. In: Proceedings of the 100th annual meeting of the A; settings: several cancer cell lines; cited from earlier work
AKT1 kinase activity = target: AKT1 kinase activity; parameters: method as in ref 4 = [4]; 4. Lu W, Defeo-Jones D, Davis L et al (2009) In vitro and in vivo antitumor activities of MK-2206, a new allosteric Akt inhibitor [abstract #3714]. In: Proceedings of the 100th annual meeting of the A; settings: several cancer cell lines; cited from earlier work
AKT3 = system: AKT3; parameters: method as in ref 3 = [3]; 3. Yan L (2009) MK-2206: a potent oral allosteric AKT inhibitor [abstract #DDT01-1]. In: Proceedings of the 100th annual meeting of the American association for cancer research, Denver, CO, 18–22 Apr; settings: purified recombinant AKT3, in vitro; cited from earlier work
[5] = system: in vivo preclinical models; parameters: method as in PMID 20571069; settings: single agent; cited from earlier work

NC1(c2ccc(-c3nc4ccn5c(=O)[nH]nc5c4cc3-c3ccccc3)cc2)CCC1 [MK-2206]
Tmax First dose ([1]; 45 mg QOD (n = 3), Day 1, median (min–max)): 4.0 (4.0–6.0) h | Apparent terminal t½ ([1]; 45 mg QOD (n = 3), harmonic mean ± pseudo SD): 79.6 ± 8.5 h | GMR C48-h ([1]; 45 mg QOD, geometric mean ratio CDay27/CDay1): 5.02 | Tmax Last dose ([1]; 60 mg QOD (n = 9), Day 27, median (min–max)): 6.0 (2.0–10.0) h | GMR C48-h ([1]; 60 mg QOD, geometric mean ratio CDay27/CDay1): 3.68 | GMR C48-h ([1]; 135 mg QW, geometric mean ratio CDay22/CDay1): 1.25 | GMR C48-h ([1]; 200 mg QW, geometric mean ratio CDay22/CDay1): 1.78 | mean exposure values (Cmax and AUC), Japanese versus non-Japanese patients ([1]; 45- and 60-mg QOD and 200-mg QW cohorts, higher): 1.4–1.9 fold | mean exposure values (Cmax and AUC), Japanese versus non-Japanese patients ([1]; 135-mg QW cohort, lower): 0.7–1.3 | AUC, Cmax and Ctrough versus non-Japanese patients ([1]; 200-mg QW cohort, P < 0.05): significantly higher | AUC(0-t) ([1]; 45 mg, 45 mg QOD (n = 3), Day 1, AUC0–48h, geometric mean (coefficient of variation), read-out: AUCt First dose): 1.85 µM·h | concentration at 48 h ([1]; 45 mg, 45 mg QOD (n = 3), Day 1, geometric mean (coefficient of variation), read-out: C48-h First dose): 28.8 nM | Cmax ([1]; 45 mg, 45 mg QOD (n = 3), Day 1, geometric mean (coefficient of variation), read-out: Cmax First dose): 60.5 nM | AUC(0-t) ([1]; 45 mg, 45 mg QOD (n = 3), Day 27, AUC0–48h, geometric mean (coefficient of variation), read-out: AUCt Last dose): 8.49 µM·h | concentration at 48 h ([1]; 45 mg, 45 mg QOD (n = 3), Day 27, geometric mean (coefficient of variation), read-out: C48-h Last dose): 144 nM | Cmax ([1]; 45 mg, 45 mg QOD (n = 3), Day 27, geometric mean (coefficient of variation), read-out: Cmax Last dose): 214 nM | AUC(0-t) ([1]; 60 mg, 60 mg QOD (n = 9), Day 1, AUC0–48h, geometric mean (coefficient of variation), read-out: AUCt First dose): 2.72 µM·h | concentration at 48 h ([1]; 60 mg, 60 mg QOD (n = 9), Day 1, geometric mean (coefficient of variation), read-out: C48-h First dose): 40.6 nM | Cmax ([1]; 60 mg, 60 mg QOD (n = 9), Day 1, geometric mean (coefficient of variation), read-out: Cmax First dose): 95.9 nM | AUC(0-t) ([1]; 60 mg, 60 mg QOD (n = 9), Day 27, AUC0–48h, geometric mean (coefficient of variation), read-out: AUCt Last dose): 9.69 µM·h | concentration at 48 h ([1]; 60 mg, 60 mg QOD (n = 9), Day 27, geometric mean (coefficient of variation), read-out: C48-h Last dose): 152 nM | Cmax ([1]; 60 mg, 60 mg QOD (n = 9), Day 27, geometric mean (coefficient of variation), read-out: Cmax Last dose): 277 nM | Tmax ([1]; 60 mg, QOD dosing (45 or 60 mg), Japanese patients, read-out: median Tmax): 4 to 6 h | AUC(0-t) ([1]; 135 mg, 135 mg QW (n = 3), Day 1, AUC0–168h, geometric mean (coefficient of variation), read-out: AUCt First dose): 9.68 µM·h | concentration at 48 h ([1]; 135 mg, 135 mg QW (n = 3), Day 1, geometric mean (coefficient of variation), read-out: C48-h First dose): 83.2 nM | Cmax ([1]; 135 mg, 135 mg QW (n = 3), Day 1, geometric mean (coefficient of variation), read-out: Cmax First dose): 234 nM | AUC(0-t) ([1]; 135 mg, 135 mg QW (n = 3), Day 22, AUC0–168h, geometric mean (coefficient of variation), read-out: AUCt Last dose): 12.8 µM·h | concentration at 48 h ([1]; 135 mg, 135 mg QW (n = 3), Day 22, geometric mean (coefficient of variation), read-out: C48-h Last dose): 104 nM | Cmax ([1]; 135 mg, 135 mg QW (n = 3), Day 22, geometric mean (coefficient of variation), read-out: Cmax Last dose): 244 nM | AUC(0-t) ([1]; 135 mg, 135 mg QW, Day 22, read-out: AUC0–48h): 12.8 µM·h | AUC(0-t) ([1]; 200 mg, 200 mg QW (n = 9), Day 1, AUC0–168h, geometric mean (coefficient of variation), read-out: AUCt First dose): 24.3 µM·h | concentration at 48 h ([1]; 200 mg, 200 mg QW (n = 9), Day 1, geometric mean (coefficient of variation), read-out: C48-h First dose): 186 nM | Cmax ([1]; 200 mg, 200 mg QW (n = 9), Day 1, geometric mean (coefficient of variation), read-out: Cmax First dose): 439 nM | AUC(0-t) ([1]; 200 mg, 200 mg QW (n = 9), Day 22, AUC0–168h, geometric mean (coefficient of variation), read-out: AUCt Last dose): 37.6 µM·h | concentration at 48 h ([1]; 200 mg, 200 mg QW (n = 9), Day 22, geometric mean (coefficient of variation), read-out: C48-h Last dose): 302 nM | Cmax ([1]; 200 mg, 200 mg QW (n = 9), Day 22, geometric mean (coefficient of variation), read-out: Cmax Last dose): 571 nM | Tmax ([1]; 200 mg, 200 mg QW (n = 9), Day 22, median (min–max), read-out: Tmax Last dose): 5 h | AUC(0-t) ([1]; 200 mg, 200 mg QW, Day 22, read-out: AUC0–48h): 37.6 µM·h | Tmax ([1]; 200 mg, QW dosing (135 and 200 mg), Japanese patients, read-out: median Tmax): 4 to 6 h | half-life ([1]; 60 mg QOD (n = 9), harmonic mean ± pseudo SD): 71.8 ± 8.9 h | half-life ([1]; 135 mg QW (n = 3), harmonic mean ± pseudo SD): 69.3 ± 8.9 h | half-life ([1]; 200 mg QW (n = 9), harmonic mean ± pseudo SD): 75.6 ± 9.7 h | IC50 (AKT2 [2]): 12 nM | apparent terminal half-life (t½) [3]: 60 to 90 h | terminal elimination half-life [3]: 60 to 80 h | potency on AKT2 activity relative to AKT1 (AKT2 [4]): two to sixfold less potently | IC50 (AKT1 kinase activity): ~20 nM | IC50 (AKT3): 65 nM | anti-tumor activity [5]: showed anti-tumor activity
